Non-standard residues stand in square brackets, D forms with d. Residues, ends and D or L forms follow the SMILES beside them. Tic = O=C(O)[C@@H]1Cc2ccccc2CN1; Orn = NCCC[C@H](N)C(=O)O; Aze = O=C(O)[C@@H]1CCN1; Aib = CC(C)(N)C(=O)O
target: T1, human UTR2 receptor (Homo sapiens, UniProt Q9UKP6); assay: Calcium mobilization assay, agonist activity at urotensin receptor; format: cell-based; conditions: mouse pre-B 300-19 cells transfected with human UTR2, read-out: EC50% (nM) ± SD, Urotensin receptor
T1 construct: expressed in transfected cells; host or cells: mouse pre-B cell line 300-19
T1 sequence (Q9UKP6 1-389): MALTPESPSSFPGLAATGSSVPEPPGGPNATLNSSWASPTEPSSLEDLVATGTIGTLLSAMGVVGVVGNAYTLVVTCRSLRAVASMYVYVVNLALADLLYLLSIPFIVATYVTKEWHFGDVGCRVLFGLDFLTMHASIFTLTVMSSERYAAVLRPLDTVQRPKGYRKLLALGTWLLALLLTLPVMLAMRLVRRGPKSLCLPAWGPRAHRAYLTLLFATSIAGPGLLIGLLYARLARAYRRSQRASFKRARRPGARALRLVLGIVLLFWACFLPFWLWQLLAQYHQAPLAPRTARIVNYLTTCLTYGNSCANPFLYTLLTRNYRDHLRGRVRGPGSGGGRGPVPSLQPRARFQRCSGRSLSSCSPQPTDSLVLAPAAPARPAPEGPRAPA
Protocol: (§1) The mouse pre-B cell line 300-19 was stably transfected with the cDNA encoding the human UTR2 receptor (GenBank Acc#NM_018949), and expression was confirmed with a positive calcium signal in response to human urotensin (Sigma Aldrich). Increases in intracellular calcium were monitored using a Flexstation 384 (Molecular Devices, Sunnyvale, Calif.). The cells were batch loaded with the Calcium 3 Assay kit (Molecular Devices) in assay buffer (Hanks Balanced salt solution, HBSS, 20 mM HEPES, pH 7.4, 0.1% BSA) for 1 h at room temperature and labeled cells were dispensed into either black 96 well or 384 well assay plates (Greiner). Calcium mobilization induced by urotensin or compounds was measured in the Flexstation 384 (excitation, […]) for 70 seconds. Agonist activity was determined by direct addition of ligand or peptides, while antagonists were identified by pre-incubation of compounds with cells prior to urotensin addition. A dose response curve (compound concentration versus % maximum response for urotensin) was determined for each active agonist and antagonist and was fitted to a four parameter logistic equation using SoftmaxPro 4.6 (Molecular Devices), from which EC50% and IC50% values were calculated.

Row | Compound | EC50 [nM]
1 | COc1ccc2c3c1CNC(=O)[C@H](Cc1ccc(O)cc1)NC(=O)[C@H](CCCCN)NC(=O)[C@H](Cc1c[nH]c4ccccc14)NC(=O)[C@H](CCC(N)=O)NC(=O)Cc1c(OC)ccc(c1O3)C2(C)C [Example 10] | 170 ± 40
2 | CC[C@H](C)[C@@H]1NC(=O)[C@@H]2CCN2C(=O)[C@H]2CCCN2C(=O)[C@H](Cc2ccc(O)cc2)NC(=O)[C@H](CCCCN)NC(=O)[C@H](Cc2c[nH]c3ccccc23)NC1=O [Example 5] (cyclo(IWKY[dP][Aze])) | 45 ± 22
3 | CC[C@H](C)[C@@H]1NC(=O)Cc2c(OC)ccc3c2Oc2c(ccc(OC)c2CNC(=O)[C@H](Cc2ccc(O)cc2)NC(=O)[C@H](CCCCN)NC(=O)[C@H](Cc2c[nH]c4ccccc24)NC1=O)C3(C)C [Example 11] | 192 ± 14
4 | C[C@@H](O)[C@@H]1NC(=O)[C@@H]2CCN2C(=O)[C@H]2CCCN2C(=O)[C@H](Cc2ccc(O)cc2)NC(=O)[C@H](CCCCN)NC(=O)[C@H](Cc2c[nH]c3ccccc23)NC1=O [Example 7] (cyclo(TWKY[dP][Aze])) | 286 ± 66
5 | COc1ccc2c3c1CNC(=O)[C@H](Cc1ccc(O)cc1)NC(=O)[C@H](CCCCN)NC(=O)[C@H](Cc1c[nH]c4ccccc14)NC(=O)[C@H](CCC(=O)O)NC(=O)Cc1c(OC)ccc(c1O3)C2(C)C [Example 13] | 274 ± 5
6 | CC[C@H](C)[C@@H]1NC(=O)C[C@@H]2NC(=O)[C@@H]3C[C@@H](CN3C2=O)NC(=O)[C@H](Cc2ccc(O)cc2)NC(=O)[C@H](CCCCN)NC(=O)[C@H](Cc2c[nH]c3ccccc23)NC1=O [Example 14] | 189 ± 13
7 | COc1ccc2c3c1CNC(=O)[C@H](Cc1c[nH]cn1)NC(=O)[C@H](Cc1ccc(O)cc1)NC(=O)[C@H](CCCCN)NC(=O)[C@H](Cc1c[nH]c4ccccc14)NC(=O)Cc1c(OC)ccc(c1O3)C2(C)C [Example 12] | 218
8 | CC[C@H](C)[C@@H]1NC(=O)[C@@H]2Cc3ccccc3CN2C(=O)[C@H]2CCCN2C(=O)[C@H](Cc2ccc(O)cc2)NC(=O)[C@H](CCCCN)NC(=O)[C@H](Cc2c[nH]c3ccccc23)NC1=O [Example 2] (cyclo(IWKY[dP][Tic])) | 68 ± 32
9 | NCCCC[C@@H]1NC(=O)[C@H](Cc2c[nH]c3ccccc23)NC(=O)[C@H](CCC(N)=O)NC(=O)[C@@H]2Cc3ccccc3CN2C(=O)[C@H]2CCCN2C(=O)[C@H](Cc2ccc(O)cc2)NC1=O [Example 3] (cyclo(QWKY[dP][Tic])) | 82 ± 13
10 | NCCCC[C@@H]1NC(=O)[C@H](Cc2c[nH]c3ccccc23)NC(=O)[C@H](Cc2ccccc2)NC(=O)[C@@H]2CCN2C(=O)[C@H]2CCCN2C(=O)[C@H](Cc2ccc(O)cc2)NC1=O [Example 4] (cyclo(FWKY[dP][Aze])) | 20 ± 5
11 | COc1ccc2c3c1CNC(=O)[C@H](Cc1ccc(O)cc1)NC(=O)[C@H](CCCCN)NC(=O)[C@H](Cc1c[nH]c4ccccc14)NC(=O)[C@H](Cc1ccccc1)NC(=O)Cc1c(OC)ccc(c1O3)C2(C)C [Example 8] | 18 ± 3
12 | NCCCC[C@@H]1NC(=O)[C@H](Cc2c[nH]c3ccccc23)NC(=O)[C@H](CCC(N)=O)NC(=O)[C@@H]2CCN2C(=O)[C@H]2CCCN2C(=O)[C@H](Cc2ccc(O)cc2)NC1=O [Example 6] (cyclo(QWKY[dP][Aze])) | 134 ± 61
13 | NCCCC[C@@H]1NC(=O)[C@H](Cc2c[nH]c3ccccc23)NC(=O)[C@H](Cc2ccccc2)NC(=O)[C@@H]2Cc3ccccc3CN2C(=O)[C@H]2CCCN2C(=O)[C@H](Cc2ccc(O)cc2)NC1=O [Example 1] (cyclo(FWKY[dP][Tic])) | 54 ± 12
14 | COc1ccc2c3c1CNC(=O)[C@H](Cc1ccc(O)cc1)NC(=O)[C@H](CCCCN)NC(=O)[C@H](Cc1c[nH]c4ccccc14)NC(=O)[C@H]([C@@H](C)O)NC(=O)Cc1c(OC)ccc(c1O3)C2(C)C [Example 9] | 160 ± 81

target: T1, human UTR2 receptor; assay: Calcium mobilization assay, antagonist activity at urotensin receptor; format: cell-based; conditions: pre-incubation before urotensin, 300-19 cells with human UTR2, read-out: IC50% (μM) ± SD, Urotensin receptor
Protocol: as §1

Row | Compound | IC50 [µM]
15 | CC[C@H](C)[C@@H]1NC(=O)[C@@H]2Cc3ccccc3CN2C(=O)[C@H]2CCCN2C(=O)[C@H]([C@@H](C)CC)NC(=O)C(C)(C)NC(=O)[C@@H](CCCNC(=N)N)NC1=O [Example 19] (cyclo(I[dR][Aib]I[dP][Tic])) | 6.2 ± 1.5

target: T2, human CCR10 (Homo sapiens, UniProt P46092); assay: Calcium flux antagonism assay with human CCL27; format: cell-based; conditions: 300-19 cells with human CCR10, human CCL27, read-out: IC50% (μM), CCR10 receptor
T2 construct: expressed in transfected cells; host or cells: mouse pre-B cell line 300-19
T2 sequence (P46092 1-362): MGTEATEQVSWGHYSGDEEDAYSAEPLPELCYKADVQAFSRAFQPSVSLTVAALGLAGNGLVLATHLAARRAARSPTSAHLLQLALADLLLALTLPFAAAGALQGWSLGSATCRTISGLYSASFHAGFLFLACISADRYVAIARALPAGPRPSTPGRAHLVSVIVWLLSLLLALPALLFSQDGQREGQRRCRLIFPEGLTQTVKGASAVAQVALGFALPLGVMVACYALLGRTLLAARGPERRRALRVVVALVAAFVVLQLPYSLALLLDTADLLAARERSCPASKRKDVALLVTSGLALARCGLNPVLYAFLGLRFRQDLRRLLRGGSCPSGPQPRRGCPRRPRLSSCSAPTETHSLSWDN
Protocol: as §1
Peptides for CCR10 (Marchese et. al. 1994, Homey et. al.) and CXCR3 (Loetscher et. al. 1998, Marchese et. al. 1995) antagonism were assayed in a mouse pre-B cell line 300-19 stably transfected with either human CCR10 or CXCR3 (Marchese et. al. 1995). Antagonism at each receptor was measured with a calcium flux assay in these cells as described above for UTR2 assays using human CCL27 and human CXCL10 (Cole et. al.) for CCR10 and CXCR3 respectively.
Selectivity was measured using the calcium flux assay on a panel of human chemokine receptor bearing cell lines (CCR1, CCR2, CCR3, CCR4, CCR5, CCR6, CCR7, CCR8, CCR9, CCR10, CXCR1, CXCR2, CXCR2, CXCR4, CXCR6 and CXCCR1) using the same method as above

Row | Compound | IC50 [µM]
16 | CC(C)[C@H]1NC(=O)[C@H](Cc2c[nH]c3ccccc23)NC(=O)[C@@H]2Cc3ccccc3CN2C(=O)[C@H]2CCCN2C(=O)[C@H](CCCN)NC(=O)[C@H](Cc2c[nH]c3ccccc23)NC1=O [Example 17] (cyclo(W[dV]W[Orn][dP][Tic])) | 0.31
17 | CC(C)[C@H]1NC(=O)[C@H](Cc2c[nH]c3ccccc23)NC(=O)[C@@H]2Cc3ccccc3CN2C(=O)[C@H]2CCCN2C(=O)[C@H](CCCCN)NC(=O)[C@H](Cc2c[nH]c3ccccc23)NC1=O [Example 18] (cyclo(W[dV]WK[dP][Tic])) | 0.29

Reference: patent publication US10000535B2, “Template-fixed peptidomimetics” (POLYPHOR LTD., priority 2007, dated 2018)
